Structures can show the parent of a compound that is named as a salt.
Tests used:
NOD mouse = assay: Effects of Arctigenin on white blood cell and platelet of NOD mouse; assay type: in vivo, NOD/Ltj mice; settings: for White Blood Cells / platelets: NOD/Ltj mice, n=13
Description: Non-obese diabetic or NOD mice is a large mouse strain, including NOD/Scid, NOD/Ltj mice and the like. Yi Feng (Yi Feng, et al., “In vitro Expansion of Cord Blood Megakaryocyte Progenitor”, ACTA Academiae Medicinae Sinicae, Vol. 27, NO. 2, pp 199-204) directly expanded megakaryocyte progenitor from cord blood CD34+ cells by using thrombopoietin (TPO), interleukin-11 (IL-11) and heparin in combination. Intravenous infusion of the megakaryocytes expanded for 7 days (at a concentration of 5×10^6) into NOD/SCID mice received pre-treatment of radiation could accelerate the recovery of platelet and white blood cell account and improved the survival of the mice.
1.1 Animals: 52 NOD/Ltj mice (purchased from Vital River Laboratory Animal Technology Co., Ltd., Beijing; Laboratory Animal NO: SCXK (BJ) 2006-2009), female, Age: 5 weeks, Body weight: 16-20 g.
After one week of adaptive feeding, healthy NOD mice aged of 5 weeks were divided randomly into 4 groups: • I. Model Control Group: 13 animals; • II. Positive Control Group: 13 animals receiving gavage of interleukin at dose of 10.0 mg/kg every day; • III. Low-dose Arctigenin Group: 13 animals receiving gavage of […] at dose of 30 mg/kg every day; • IV. High-dose Arctigenin Group: 13 animals receiving gavage of […] at dose of 60 mg/kg every day.
The administration was given consecutively to each group once per day, and stopped after 15 days. The animals were then anaesthetized (3% pentobarbital sodium via intraperitoneal injection at 0.1˜0.15 ml/animal) and 1 ml blood was taken via abdominal vena cava for blood routine examination.

[1] = system: Tumor-bearing mice (murine cancer cell line s180); assay: Effects of Arctigenin on myelosuppression caused by chemotherapy in tumor-bearing mice (blood routine examination); assay type: in vivo, Kunming mice; settings: for Neutrophil / White Blood Cells / platelet: s180 tumor-bearing mice, 10 days once per day, Docetaxel 75 mg/m^2/d, Imatinib Mesylate 222.2 mg/m^2/d tail vein, Arctigenin 10 mg/m^2/d peritoneal, n=10
Experimental: (§1) The cell suspension was injected into abdominal cavity of mice under sterile conditions. The mice were sacrificed by cervical dislocation at 7 days after inoculation when the abdominal cavity expanded obviously, and then soaked in a flask with 75% ethanol for 2-3 min. The sterilized mice were placed on a superclean bench with abdomen exposed. The ascites were taken with sterile injectors and stored in sterile vials for further use. The ascites was counted by Trypan blue staining, and then diluted to 2.0×10^7 cell/ml with physiological saline. The animals were inoculated with the dilutions in the right armpit at 0.2 ml/animal.
The inoculated animals were divided randomly into following six groups with 10 animals each group (F:M=1:1): • 1. Model Group (Group M): receiving peritoneal injection of 0.9% physiological saline; • 2. Docetaxel Group (Group D): receiving 75 mg/m^2/d Docetaxel; • 3. […] Arctigenin Group (Group A): receiving 10 mg/m^2/d Arctigenin; • 5. Docetaxel plus Arctigenin Group (Group D+A): receiving 75 mg/m^2/d Docetaxel plus 10 mg/m^2/d Arctigenin; • 6.
(§2) Docetaxel and Imatinib Mesylate were administered via tail vein injection at dosages of 20 ml/kg. Arctigenin was administered via peritoneal injection at a dosage of 10 ml/kg. The administration was given to each group once per day for 10 days in total. During the experimental process, the animals were observed everyday for their diets, survivals and behaviors and weighted every day. At the end of the experiment, the animals were anaesthetized and anatomize to draw blood from abdominal vena cava for blood routine examination, including total white blood cell count, total platelet count and neutrophil count.

[2] = Body weight and tolerability of tumor-bearing mice during administration; assay type: in vivo, Kunming mice; settings: for Body weight before administration: mouse, in vivo
Experimental: as §1, with “The murine cancer cell line s180 was cultured in 1640 culture medium at 37° C., 5% CO2, sub-cultured every two days on average till logarithmic growth phase and then prepared into single cell suspension at 3.0×10^7 cell/ml with physiological saline. The cell” for “The cell”
The inoculated animals were divided randomly into following six groups with 10 animals each group (F:M=1:1): • 1. Model Group (Group M): receiving peritoneal injection of 0.9% physiological saline; • 2. Docetaxel Group (Group D): receiving 75 mg/m^2/d Docetaxel; • 3. Imatinib Mesylate Group (Group IM): receiving 222.2 mg/m^2/d Imatinib Mesylate; • 4. Arctigenin Group (Group A): receiving 10 mg/m^2/d Arctigenin; • 5. Docetaxel plus Arctigenin Group (Group D+A): receiving 75 mg/m^2/d Docetaxel plus 10 mg/m^2/d Arctigenin; • 6. Imatinib Mesylate plus Arctigenin Group (Group IM+A): receiving 222.2 mg/m^2/d Imatinib Mesylate plus 10 mg/m^2/d Arctigenin.
as §2

[3] = system: mice received ^60Co radiation at 4Gy; assay: Effects of Arctigenin on blood cell counts of mice under 60Co radiation; assay type: in vivo, Kunming mice
Description: 1.1 Animals: Kunming mice (purchased from National Institute for the Control of Pharmaceutical and Biological Products, China; Laboratory Animal NO: SCXK II-00-0010; female/male ratio at 1:1; Age: 7 weeks; […] The rest mice were included in the experiment. The mice fulfilled the experimental requirements after radiation were divided randomly into the following groups of: model group, group of burdock extract and Arctigenin group (each group: n=10; F/M=1:1). Each group was subjected to treatment or administration as follows: • 1. Normal Group (Group N): peritoneal injection of 0.9% physiological saline at a volume of 10 ml/kg; • 2. Model Group (Group M): peritoneal injection of 0.9% physiological saline at a dose of […]; • 3. Group of burdock Extract (Group E): peritoneal injection of water […] of Arctium lappa at a dose of 3.5 ml/kg/d; • 4. Arctigenin Group (Group A): peritoneal injection of 10 mg/kg/d Arctigenin at a volume of 10 ml/kg. Said burdock extract was prepared by: 1) placing burdock in a pot, adding water till the plant was immerged; 2) soaking burdock for 30 min for promoting the extraction of the effective components; 3) rapidly heating till boiling, fully boiling for 1-3 min, further heating for 20-30 min for concentration, and filtrating through sterile gauzes into a beaker; and 4) mixing the first dose with re-extracted agents uniformly after the first extraction for balancing their effects. 200 ml water extracts were prepared from 1 kg burdock. The administration was given to each group once per day for 10 days in total. During the experimental process, the animals were observed everyday for their diets, survivals and behaviors and weighted every day. At the end of the experiment, the animals were anaesthetized and anatomize to take blood from abdominal vena cava for blood routine examination, including total white blood cell count and total platelet count.

[4] = high-dose, gavage 60 mg/kg every day for 15 days
[5] = low-dose, gavage 30 mg/kg every day for 15 days
[6] = mice after 60Co 4 Gy whole body radiation, peritoneal injection once per day for 10 days, Arctigenin 10 mg/kg/d, burdock water extract 3.5 ml/kg/d, n=10

Compound	White blood cell counts and platelet counts compared with model group (NOD mouse; NOD mice, low-dose and high-dose groups, in words)	White Blood Cells (NOD mouse; [4])	platelets (NOD mouse; [4])	White Blood Cells (NOD mouse; [5])	platelets (NOD mouse; [5])	Neutrophil [1]	White Blood Cells [1]	platelet [1]	Total white blood cell count and total neutrophil count compared with the Docetaxel group and the imatinib mesylate group ([1]; tumor-bearing mice, P<0.01, in words)	Total white blood cell count and total neutrophil count compared with the model group ([1]; tumor-bearing mice, P<0.01 or P<0.05, in words)	Body weight before administration [2] [g]	Toxic or side effects ([2]; tumor-bearing mice, 10 days administration, in words)	Total white blood cell count and platelet count in comparison with the model group ([3]; 60Co 4 Gy radiated mice, P<0.01 or P<0.05, in words)	White Blood Cells [3, 6]	platelet [3, 6]	Neutrophil numbers in comparison with Group M ([1]; tumor-bearing mice, in words)
COc1cc(C[C@H]2C(=O)OC[C@@H]2Cc2ccc(OC)c(OC)c2)ccc1O [Arctigenin]	significantly higher	4.225 ± 0.51^##$ 10^9/L	780.2 ± 46.5^##$$ 10^9/L	3.242 ± 0.45^#$ 10^9/L	730.5 ± 34.6^##$ 10^9/L	1.316 ± 0.15^#**^$$ 10^9/L	3.530 ± 0.31^##**^$$ 10^9/L	687.4 ± 37.3^## 10^9/L	significant increases in total white blood cell count and total neutrophil count	increase in both the total white blood cell count and the total neutrophil count	21.1 ± 3.0	does not have significant toxic or side effects	increase in both total white blood cell count and the platelet count	4.225 ± 0.51^##$ 10^9/L	596.2 ± 72.5^#$ 10^9/L	–
CC(=O)O[C@@]12CO[C@@H]1C[C@H](O)[C@@]1(C)C(=O)[C@H](O)C3=C(C)[C@@H](OC(=O)[C@H](O)[C@@H](NC(=O)OC(C)(C)C)c4ccccc4)C[C@@](O)([C@@H](OC(=O)c4ccccc4)[C@H]21)C3(C)C [Group D, Docetaxel]	–	–	–	–	–	0.670 ± 0.12 10^9/L	2.773 ± 0.46 10^9/L	450.6 ± 30.5 10^9/L	–	–	21.2 ± 1.8	–	–	–	–	decreased significantly
Cc1ccc(NC(=O)c2ccc(CN3CCN(C)CC3)cc2)cc1Nc1nccc(-c2cccnc2)n1 [Group IM, Imatinib Mesylate]	–	–	–	–	–	0.695 ± 0.09 10^9/L	2.703 ± 0.37 10^9/L	432.9 ± 34.8 10^9/L	–	–	21.3 ± 2.3	–	–	–	–	decreased significantly

From patent publication US20130190394A1, “Applications Of Arctigenin In Formulating Drugs For Preventing Or Treating Diseases Related To Red Blood Cell Reduction” (priority 2010, published 2013)
